Here are results for one compound from patent publication US20250160678A1, “GRAPHENE SENSOR SYSTEMS FOR C[…] ANALYSIS” (VOCxI Health, Inc., priority 2023, published 2025).

Molecules are shown by their SMILES.

The data set is described as follows: elimination curves of cannabinoids after ingestion (FIG. 2). The format is in vivo. Particulars: time of Test 2 (which may be two hours after cannabinoid ingestion). From the text:
Referring now to FIG. 1, a chart is shown of elimination curves of various cannabinoids. […] The relative amounts of cannabinoid metabolites (e.g., intermediate or final breakdown products of cannabinoid compounds in the body) will also vary with time after an ingestion event.
As previously referenced, the relative amounts of one cannabinoid compound to another and/or metabolites thereof will vary with time after an ingestion event because their different half-lives in the body. As such, a pattern of compounds captured with a system herein at time point that is closer to the time of ingestion will be different than a pattern of compounds captured at a later time. Referring now to FIG. 2, a chart is shown of elimination curves of various cannabinoids. […] In this example, exemplary test times are shown in the form of Test 1, Test 2, and Test 3, with each test being progressively spaced out farther away in time from the time of ingestion. […] Because of this, patterns as identified by systems herein are different at each test time. For example, at the time of Test 1 (which may be a half-hour after cannabinoid ingestion) the amount of CBN is roughly 80 to 90 percent of the amount of THC. In contrast, at the time of Test 2 (which may be two hours after cannabinoid ingestion) the amount of CBN is only about 50 percent of the amount of THC. […]

Regarding `CCCCCc1cc(O)c2c(c1)OC(C)(C)c1ccc(C)cc1-2` [CBN, cannabinol], the “amount of CBN as percent of the amount of THC” value is listed as “about 50%”.
